# From patent US6413736B1, “Astaxanthin over-producing strains of phaffia rhodozyma, methods for their cultivation, and their use in animal feeds” (Archer-Daniels-Midland Company, priority 1993, dated 2002)
# Test system: Rainbow trout (Onchorhynchus mykiss, Shasta strain)
# Assay: Rainbow trout feeding trial, 84 days: whole or disrupted Phaffia yeast versus synthetic astaxanthin
# Format: in vivo
# Conditions: after 84 days of feeding, FIG. 10, Phaffia versus synthetic astaxanthin
# Description: The Phaffia strain was grown in a 2,000 l fermentor in a manner substantially described as above. Cells were concentrated to 15-22% solids by centrifugation and dried. The feed was processed by Zeigler Bros. Inc., […], Pa. The novel Phaffia rhodozma or synthetic astaxanthin (5% Carophyll Pink, Hoffmann-LaRoche) were incorporated into their #1⁄8 Trout Grower pelleted food. Rainbow trout (Onchorhynchus mykiss, Shasta strain) were obtained from a local commercial trout grower. After acclimation to laboratory conditions and an experimental control diet, the trout were moved into separate experimental tanks (28 fish per tank). […] Collectively, the procedures and diets employed in the experiments were designed to result in near-optimal growth of trout at 10 C, the approximate temperature at which most commercially-produced trout are raised. […] The fish were stunned by a blow to the head; total length measured; weight after blotting dry determined; and then each fish was cut across the isthmus severing the ventral aorta. […] The carotenoids were then partitioned into hexanes:ethyl acetate (1:1 by volume) and the total carotenoid and astaxanthin content were determined as described above in the section entitled PIGMENT EXTRACTION AND ASTAXANTHIN ANALYSIS. […] The DMSO extracted carotenoids were then quantified as described above in the section entitled PIGMENT EXTRACTION AND ASTAXANTHIN ANALYSIS. […]
smiles,measurement,value
"CC1=C(/C=C/C(C)=C/C=C/C(C)=C/C=C/C=C(C)/C=C/C=C(C)/C=C/C2=C(C)C(=O)C(O)CC2(C)C)C(C)(C)CC(O)C1=O (stereo not drawn) [synthetic astaxanthin, 3,3′-dihydroxy-β,β-carotene-4,4′-dione]",flesh carotenoid content,the same
